# Test results taken from BindingDB's records for patent US20240382465 (Zhejiang Hisun Pharmaceutical, 2024).
# Molecular target: T1, UDP-3-O-acyl-N-acetylglucosamine deacetylase (Pseudomonas aeruginosa (strain ATCC 15692 / DSM 22644 / CIP 104116 / JCM 14847 / LMG 12228 / 1C / PRS 101 / PAO1), UniProt P47205)
# T1 sequence (P47205 whole entry): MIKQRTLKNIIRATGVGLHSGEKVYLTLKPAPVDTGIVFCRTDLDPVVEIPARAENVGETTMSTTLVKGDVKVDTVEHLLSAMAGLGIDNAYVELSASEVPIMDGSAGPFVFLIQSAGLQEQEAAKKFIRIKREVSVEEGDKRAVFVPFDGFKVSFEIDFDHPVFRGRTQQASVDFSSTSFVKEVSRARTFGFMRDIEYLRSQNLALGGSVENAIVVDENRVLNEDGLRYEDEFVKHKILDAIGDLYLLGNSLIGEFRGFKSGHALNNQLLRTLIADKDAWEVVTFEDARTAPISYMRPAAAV
# Assay: LpxC Enzymatic Activity Assay
# Protocol: The experimental procedure is briefly described as follows: The test compound was first dissolved in DMSO to prepare a 10 mM stock solution. The reaction was carried out in a 96-well microplate. First, 20 μL of recombinant Pseudomonas aeruginosa LpxC (purchased from Signalway Antibody, product number AP74647-2) was added to each well, with a final concentration of 5 nM. 5 μL of the compound to be tested was then added, and the compound was diluted 4 times to 8 concentration points with a concentration range of 0.61-10,000 nM. 5 μL of LpxC substrate UDP-3-O—(R-3-hydroxydecanoyl)-GlcNAc (purchased from Biosynth Carbosynth, product number: mu75071) was added, with a final concentration of the substrate of 10 μM. The plate was incubated at 25° C. for 120 minutes. Then 20 μL of 2.0 mg/mL fluorescamine (purchased from sigmaaldrich, product number: F9015, solvent: 1:1 dimethylformamide/acetonitrile) was added to the reaction system, and mixed well for 10 minutes of reaction. Finally, 50 μL of 200 mM sodium phosphate buffer (pH 8.0) was added to terminate the reaction. Reading was carried out using a microplate reader (BMG), and the excitation and emission wavelengths were 390 and 495 nm respectively.
row,SMILES,IC50
1,"C[C@H](O)c1nccn1Cc1cc(-c2ccc(C#Cc3ccc(N4CCN(C)CC4)cc3)cc2)on1 [US20240382465, Example 65]",64.6 nM
2,"C[C@H](O)c1nccn1Cc1cc(-c2ccc(C#Cc3ccc(NC4CCOCC4)cc3)cc2)on1 [US20240382465, Example 66]",67.9 nM
